The text below walks through data of patent US4888283A, “Selective inhibitors of benzylaminoxidases with respect to other aminoxidases” (priority 1985, dated 1989).

Bounds are passed on as bounds.

The target in assay [1] is Pure BAO obtained from swine plasma. In words: Inhibition of benzylaminoxidase (BAO), isotopic procedure with 14C-benzylamine. The class given is biochemical. To be noted: 30 minutes pre-incubation; 14C-benzylamine 1,7 mM (saturating); mean ± s.e. As for the experimental part:
The quantitative determination of benzylaminoxidases (BAO's) is carried out by the isotopic procedure disclosed by F. Buffoni and G. Ignesti (Biochem. J.; 145, 369 (1975)) employing ^14 C-benzylamine as the substrate at the final concentration of 1,7 mM.
(§1) Pure BAO obtained from swine plasma by the procedure disclosed by F. Buffoni and H. Blaschko (Proc. Roy. Soc. B 161, 153 (1964)); DAO from swine kidney, as obtained and purified by the Sigma (St. Louis, Md., USA, 0.25 U/mg); purified LAO from swine aorta obtained by the procedure disclosed by F. Buffoni and L. Raimondi (Agents and Actions, 11, 38 (1981)). Rat liver mitochondria obtained by the procedure disclosed by G. W. Schneider and G. H. Hogeboon (J. Biol. Chem., 183, 123 (1950)) were employed as the source of MAO.
(§2) IC50 (M)=The molar concentration of the inhibitor that inhibits 50% of the enzyme activity at a saturating concentration of the substrate. Said concentration is calculated from curves obtained by pre-incubation of the compound for 30 minutes (at 6 different concentrations) with the enzyme before adding the substrate and determining the enzymic rate.
(§3) The repetition of the experiments allows to obtain the average values of the IC50 (M) as well as the relative standard errors.

Assay [2] addresses T1, DAO from swine kidney (Sus scrofa, UniProt Q9TRC7).
T1 construct: DAO from swine kidney, as obtained and purified by the Sigma; purchased Sigma (St. Louis); host or cells: swine kidney
T1 sequence (Q9TRC7 25-755): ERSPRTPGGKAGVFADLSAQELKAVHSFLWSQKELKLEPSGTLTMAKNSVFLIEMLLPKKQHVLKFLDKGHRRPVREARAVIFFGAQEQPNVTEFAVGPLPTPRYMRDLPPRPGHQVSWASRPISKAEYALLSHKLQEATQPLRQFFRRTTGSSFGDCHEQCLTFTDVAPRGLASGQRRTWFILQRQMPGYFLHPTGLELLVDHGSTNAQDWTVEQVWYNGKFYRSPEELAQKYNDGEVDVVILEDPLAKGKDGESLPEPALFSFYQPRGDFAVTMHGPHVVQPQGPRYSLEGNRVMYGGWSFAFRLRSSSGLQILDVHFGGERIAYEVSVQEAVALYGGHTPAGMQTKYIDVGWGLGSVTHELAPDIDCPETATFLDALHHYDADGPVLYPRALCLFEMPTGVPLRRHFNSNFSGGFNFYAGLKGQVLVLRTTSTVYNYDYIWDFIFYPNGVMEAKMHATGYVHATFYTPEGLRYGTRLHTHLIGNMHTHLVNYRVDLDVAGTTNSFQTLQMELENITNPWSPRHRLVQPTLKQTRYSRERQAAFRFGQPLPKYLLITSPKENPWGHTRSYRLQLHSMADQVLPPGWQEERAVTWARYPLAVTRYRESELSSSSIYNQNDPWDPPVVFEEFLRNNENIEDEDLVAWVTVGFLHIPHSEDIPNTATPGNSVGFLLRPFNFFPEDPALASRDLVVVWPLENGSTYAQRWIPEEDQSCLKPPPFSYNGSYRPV
Nature of the assay: Inhibition of diaminoxidase (DAO), isotopic method with 14C-putrescine. The class given is biochemical. To be noted: 30 minutes pre-incubation; 14C-putrescine 1 mM; mean ± s.e. As for the experimental part:
The quantitative determination of the diaminoxidases (DAO's) is performed by the isotopic method disclosed by J. Kusche, H. Richter, R. Hesterberg, J. Schmidt, W. Lorenz, (Agents and Actions, 3, 148-156 (1973)) employing ^14 C-putrescine as the substrate at the final concentration of 1 mM.
as §1, §2, §3

In assay [3] the target is T2, purified LAO from swine aorta (Sus scrofa, UniProt P45845).
T2 construct: purified LAO from swine aorta; from tissue; host or cells: swine aorta, purified by the procedure of Buffoni and Raimondi (1981)
T2 sequence (P45845 1-249): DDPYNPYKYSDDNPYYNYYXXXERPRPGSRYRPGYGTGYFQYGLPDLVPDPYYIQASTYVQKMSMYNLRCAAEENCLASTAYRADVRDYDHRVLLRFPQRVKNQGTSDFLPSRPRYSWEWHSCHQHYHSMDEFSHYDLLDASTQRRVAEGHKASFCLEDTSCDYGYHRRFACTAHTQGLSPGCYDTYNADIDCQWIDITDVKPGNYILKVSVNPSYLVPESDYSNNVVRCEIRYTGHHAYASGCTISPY
In words: Inhibition of lysyloxidase (LAO), isotopic procedure with 3H-elastine. Format: biochemical. To be noted: 30 minutes pre-incubation; 3H-elastine 0.150 mg/ml. As for the experimental part: The quantitative determination of lysyloxidase (LAO) is carried out by the isotopic procedure of […]. Biochem., 77, 141 (1977)) employing as the substrate ^3 […] prepared as disclosed by […], and G. R. Martin (Proc. Natl. Acad. Sci. USA 61, 708 (1968)) and isolated as disclosed by […]. Smith (Biochemistry, 8, 2940 (1969)). […] Pure BAO obtained from swine plasma by the procedure disclosed by F. Buffoni and H. Blaschko (Proc. Roy. Soc. B 161, 153 (1964)); DAO from swine kidney, as obtained and purified by the Sigma (St. Louis, Md., USA, 0.25 U/mg); purified LAO from swine aorta obtained by the procedure disclosed by F. Buffoni and L. Raimondi (Agents and Actions, 11, 38 (1981)). Rat liver mitochondria obtained by the procedure disclosed by G. W. Schneider and […]. Biol. Chem., 183, 123 (1950)) were employed as the source of MAO. IC50 (M)=The molar concentration of the inhibitor that inhibits 50% of the enzyme activity at a saturating concentration of the substrate. Said concentration is calculated from curves obtained by pre-incubation of the compound for 30 minutes (at 6 different concentrations) with the enzyme before adding the substrate and determining the enzymic rate. The repetition of the experiments allows to obtain the average values of the IC50 (M) as well as the relative standard errors.

The test system of assay [4] is MAO (rat liver mitochondria). In words: Inhibition of monoaminoxidases (MAO), isotopic procedure with 14C-beta-phenylethylamine. The class given is biochemical. To be noted: 30 minutes pre-incubation; 14C-beta-phenylethylamine 1.7 mM; mean ± s.e. As for the experimental part:
The quantitative determination of monoaminoxidases (MAO's) is carried out by the same procedure as the determination of BAO's, but ^14 C-beta-phenylethylamine is employed at the final concentration of 1.7 mM.
as §1, §2, §3

Assay [5] concerns Pure BAO obtained from swine plasma. In words: Compound as the substrate of BAO (production of H2O2). Format: biochemical. Also noted: key: the compound is the substrate; ns: the compound is not the substrate. The note with it: 37° C., air. As for the experimental part:
(§4) The oxidation of the compound is estimated in all cases by measuring the production of H2 O2. Such operation is carried out within a temperature-controlled bath set at 37° C. and stirred, in the presence of air. The production-of H2 O2 is quantitatively determined by the method of H. P. Lehman, K. H. Schosinsky, M. F. Beeler (Clin. Chem., 20, 1564 (1974)).
as §1

Assay [6] addresses T1, DAO from swine kidney. In words: Compound as the substrate of DAO (production of H2O2). The class given is biochemical. Also noted: key: the compound is the substrate; ns: the compound is not the substrate. The note with it: 37° C., air. As for the experimental part:
as §4, §1

The test system of assay [7] is MAO (rat liver mitochondria). Nature of the assay: Compound as the substrate of MAO (production of H2O2). Format: biochemical. Details: key: the compound is the substrate; ns: the compound is not the substrate. To be noted: 37° C., air. As for the experimental part:
as §4, §1

The subject of assay [8] is Pure BAO obtained from swine plasma. In words: Reversibility of BAO inhibition by dialysis. The class given is biochemical. Details: key: reversible inhibition; irreversible inhibition; pr: partially reversible inhibition. To be noted: dialysis of the solution.
Source text: as §1
The reversibility of the effect was evaluated showing that the inhibition caused by a certain concentration of the inhibitor (for instance the IC50 value) would be reverted by dialysis of the solution.

For assay [9] the test system is unchanged. In words: Inhibition type on BAO (Lineweaver-Burk). Format: biochemical. Also noted: key: competitive inhibition; nc: not competitive inhibition; mixed inhibition. To be noted: 1/v vs. 1/s, 5 substrate concentrations.
Source text: as §1
The inhibition type was evaluated by studying the effect of the compound on the enzymic rate (v) at 5 different concentrations of the substrate (s) and plotting the results by the classical procedure as 1/v vs. 1/s according to Lineweaver-Burk.

In another assay the test system is BAO's. To be noted: background statement, cited from earlier work.

As for `COCOc1cccc(OCOC)c1CN.Cl` [Example 9, 2,6-bis(methoxymethoxy)benzylamine hydrochloride], the IC50 in [1] was 0.95 µM; against DAO from swine kidney [2], greater than 10000 µM; in assay [3], greater than 1000 µM; in [4] it was 22000 ± 60 µM. Further, the “BAO: compound as the substrate” value in [5] was “s”. On DAO from swine kidney [6], the “DAO: compound as the substrate” value was “s”. Besides, in [7], the “MAO: compound as the substrate” value is given as “ns”. The “BAO: reversibility of the inhibition” value in assay [8] was “r”. For the same molecule, the “BAO: inhibition type” value in [9] is listed as “m”.
Turning to `CCCc1cccc(CCC)c1CN.Cl` [Example 12, 2,6-di-n-propylbenzylamine hydrochloride], the IC50 (against DAO from swine kidney [2]; in [3]; in assay [4]) was 1000 µM in each case. Moreover, in assay [5], the “BAO: compound as the substrate” value is reported as “ns”. Moreover, the “DAO: compound as the substrate” value at DAO from swine kidney [6] is listed as “s weak”. In [7], the “MAO: compound as the substrate” value is on record as “s”. The “BAO: reversibility of the inhibition” value in [8] is “r”. The “BAO: inhibition type” value in assay [9] is given as “nc”.
For `N#CCCN` [beta-aminopropionitrile], the IC50 in the assay with BAO's (read-out: I50 on BAO's) is greater than 10000 µM. For the same molecule, the “Kind of inhibition of BAO's” value in the assay on BAO's (high concentrations) is “irreversibly”.
